# Patent publication US9598433B2, “Hepatitis C virus inhibitors” (BRISTOL-MYERS SQUIBB COMPANY, priority 2012, dated 2017)
# How the values were obtained:
# [1] = tested on: HCV genotype 1a (H77 strain) replicon in HUH-7 cells; assay: HCV replicon luciferase reporter assay, genotype 1a; format: cell-based; conditions: Hepatitis C virus, 72 h, genotype 1a replicon, 3 days incubation, read-out: LE_1a (EC50, range)
# Text: (§1) An HCV replicon whole cell system was established as described by Lohmann V, Korner F, Koch J, Herian U, Theilmann L, Bartenschlager R., Science 285(5424):110-3 (1999) and modified to introduce a luciferase reporter, as first described by Krieger et al (Krieger N, Lohmann V, and Bartenschlager R, J. Virol. 75(10):4614-4624 (2001)). CDNA encoding a humanized form of the Renilla luciferase gene and a linker sequence fused directly to the 3′-end of the luciferase gene were introduced into the replicon construct using an Ascl restriction site located in core, directly upstream of the neomycin marker gene. The adaptive mutation at position 1179 (serine to isoleucine) was also introduced (Blight K J, Kolykhalov, A A, Rice, C M, Science 290(5498):1972-1974). A stable cell line constitutively expressing this HCV replicon construct was generated by first linearizing plasmid DNAs with ScaI. RNA transcripts were synthesized in vitro using the T7 MegaScript transcription kit (Ambion, Austin, Tex.) according to manufacturer's directions. In vitro transcripts of the cDNA were transfected into the human hepatoma cell line, HUH-7. […] Resulting cell lines were characterized for positive and negative strand RNA production and protein production over time.
# A stable HCV replicon luciferase reporter cell line representing the genotype 1a H77 strain (Yanagi M, Purcell R H, Emerson S U, et al. Transcripts from a single full-length cDNA clone of hepatitis C virus are infectious when directly transfected into the liver of a chimpanzee. Proc Natl Acad Sci USA 1997; 94(16):8738-8743) was generated as described previously for the genotype 1b(Con1) replicon luciferase cell line. The replicon construct was modified by introducing mutations were introduced into the genes encoding the NS3 helicase domain (proline replaced by leucine at position 1496) and NS5A (serine to isoleucine at position 2204) to improve replication in cell culture.
# (§2) HCV replicon luciferase assays were developed to monitor the inhibitory effects of compounds described in the disclosure on HCV genotypes 1a and 1b viral replication. HUH-7 cells, constitutively expressing the HCV replicon, were grown in Dulbecco's Modified Eagle Media (DMEM) (Gibco-BRL) containing 10% Fetal calf serum (FCS) (Sigma) and 1 mg/mL G418 (Gibco-BRL). Compounds were serially diluted 3 folds in DMSO for a twenty-point titration and subsequently transferred to sterile 384-well tissue-culture treated plates (Corning cat #3571). The plates were then seeded with 50 μL of cells at a density of 3.0×10^3 cells/well in DMEM containing 4% FCS (final DMSO concentration at 0.5%). After 3 days incubation at 37° C., cells were analyzed for Renilla Luciferase activity using the EnduRen as substrate (Promega cat #E6485). The EnduRen substrate was diluted in DMEM and then added to the plates to a final concentration of 7.5 μM. The plates were incubated for 2 hrs at 37° C. and then read immediately for 30 seconds with Viewlux Imager (PerkinElmer) using a luminescence program. To assess cytotoxicity of compounds, CC50 values were generated by multiplexing the EnduRen-containing plates with Cell Titer-Blue (Promega, cat # G8082). Cell-Titer Blue (3 μL) was added to each well and incubated for 8 hrs at 37° C. The fluorescence signal from each well was read, with an excitation wavelength at 525/10 nm and an emission wavelength of 598/10 nm, using the Viewlux Imager.
# (§3) The EC50 values for compounds were calculated by using a four-parameter logistic equation: y=A+((B−A)/(1+((C/x)^D))), where A and B denotes minimal and maximal % inhibition, respectively, C is the EC50, D is the hill slope and x represents compound concentration.
# [2] = tested on: HCV genotype 1b (Con1) replicon in HUH-7 cells; assay: HCV replicon luciferase reporter assay, genotype 1b; format: cell-based; conditions: Hepatitis C virus, 72 h, genotype 1b replicon, 3 days incubation, read-out: LE_1b (EC50, range)
# Text: as §1, §2, §3
SMILES,EC50 [1],EC50 [2]
"CC[C@@H]1O[C@H](C)CC/C=C\[C@@H]2C[C@@]2(C(=O)NS(=O)(=O)C2(C)CC2)NC(=O)[C@@H]2C[C@@H](Oc3nc4cc(OC)ccc4nc3C(F)(F)F)CN2C(=O)[C@H]1NC(=O)OC(C)(C)C(F)(F)F [Compound 1015, 1,1,1-trifluoro-2-methylpropan-2-yl ((2R,6S,7S,9R,13aS,14aR,16aS,Z)-7-ethyl-2-((7-methoxy-3-(trifluoromethyl)quinoxalin-2-yl)oxy)-9-methyl-14a-(((1-methylcyclopropyl)sulfonyl)carbamoyl)-5,16-dioxo-2,3,5,6,7,9,10,11,13a,14,14a,15,16,16a-tetradecahydro-1H-cyclopropa[i]pyrrolo[1,2-e][1,5,8]oxadiazacyclopentadecin-6-yl)carbamate]",100 to 500 pM,100 to 500 pM
"CC[C@@H]1O[C@H](C)CC/C=C\[C@@H]2C[C@@]2(C(=O)NS(=O)(=O)C2(C)CC2)NC(=O)[C@@H]2C[C@@H](Oc3nc4cc(OC)ccc4nc3C(F)(F)F)CN2C(=O)[C@H]1NC(=O)OC(C)(C)C(C)(F)F [Compound 1016, 3,3-difluoro-2-methylbutan-2-yl ((2R,6S,7S,9R,13aS,14aR,16aS,Z)-7-ethyl-2-((7-methoxy-3-(trifluoromethyl)quinoxalin-2-yl)oxy)-9-methyl-14a-(((1-methylcyclopropyl)sulfonyl)carbamoyl)-5,16-dioxo-2,3,5,6,7,9,10,11,13a,14,14a,15,16,16a-tetradecahydro-1H-cyclopropa[i]pyrrolo[1,2-e][1,5,8]oxadiazacyclopentadecin-6-yl)carbamate]",100 to 500 pM,100 to 500 pM
"CC[C@@H]1O[C@H](C)CC/C=C\[C@@H]2C[C@@]2(C(=O)NS(=O)(=O)C2(C)CC2)NC(=O)[C@@H]2C[C@@H](Oc3nc4c(c5cc(OC)c(F)cc35)CCCO4)CN2C(=O)[C@H]1NC(=O)OC(C)(C)C(F)(F)F [Compound 1017, 1,1,1-trifluoro-2-methylpropan-2-yl ((2R,6S,7S,9R,13aS,14aR,16aS,Z)-7-ethyl-2-((8-fluoro-9-methoxy-2,3-dihydro-1H-pyrano[2,3-c]isoquinolin-6-yl)oxy)-9-methyl-14a-(((1-methylcyclopropyl)sulfonyl)carbamoyl)-5,16-dioxo-2,3,5,6,7,9,10,11,13a,14,14a,15,16,16a-tetradecahydro-1H-cyclopropa[i]pyrrolo[1,2-e][1,5,8]oxadiazacyclopentadecin-6-yl)carbamate]",510 to 1000 pM,510 to 1000 pM
"CC[C@@H]1O[C@H](C)CC/C=C\[C@@H]2C[C@@]2(C(=O)NS(=O)(=O)C2(C)CC2)NC(=O)[C@@H]2C[C@@H](Oc3cc(OC)nc4cc(OC)c(F)cc34)CN2C(=O)[C@H]1NC(=O)OC(C)(C)C(F)(F)F [Compound 1018, 1,1,1-trifluoro-2-methylpropan-2-yl ((2R,6S,7S,9R,13aS,14aR,16aS,Z)-7-ethyl-2-((6-fluoro-2,7-dimethoxyquinolin-4-yl)oxy)-9-methyl-14a-(((1-methylcyclopropyl)sulfonyl)carbamoyl)-5,16-dioxo-2,3,5,6,7,9,10,11,13a,14,14a,15,16,16a-tetradecahydro-1H-cyclopropa[i]pyrrolo[1,2-e][1,5,8]oxadiazacyclopentadecin-6-yl)carbamate]",1010 to 5000 pM,510 to 1000 pM
"CC[C@@H]1O[C@H](C)CC/C=C\[C@@H]2C[C@@]2(C(=O)NS(=O)(=O)C2(C)CC2)NC(=O)[C@@H]2C[C@@H](Oc3cc(OC)nc4cc(OC)ccc34)CN2C(=O)[C@H]1NC(=O)OC(C)(C)C(F)(F)F [Compound 1019, 1,1,1-trifluoro-2-methylpropan-2-yl ((2R,6S,7S,9R,13aS,14aR,16aS,Z)-2-((2,7-dimethoxyquinolin-4-yl)oxy)-7-ethyl-9-methyl-14a-(((1-methylcyclopropyl)sulfonyl)carbamoyl)-5,16-dioxo-2,3,5,6,7,9,10,11,13a,14,14a,15,16,16a-tetradecahydro-1H-cyclopropa[i]pyrrolo[1,2-e][1,5,8]oxadiazacyclopentadecin-6-yl)carbamate]",1010 to 5000 pM,100 to 500 pM
"CC[C@@H]1O[C@H](C)CC/C=C\[C@@H]2C[C@@]2(C(=O)NS(=O)(=O)C2(C)CC2)NC(=O)[C@@H]2C[C@@H](Oc3cc(OC)nc4cc(OC)ccc34)CN2C(=O)[C@H]1NC(=O)OC(C)(C)C(C)(F)F [Compound 1020, 3,3-difluoro-2-methylbutan-2-yl ((2R,6S,7S,9R,13aS,14aR,16aS,Z)-2-((2,7-dimethoxyquinolin-4-yl)oxy)-7-ethyl-9-methyl-14a-(((1-methylcyclopropyl)sulfonyl)carbamoyl)-5,16-dioxo-2,3,5,6,7,9,10,11,13a,14,14a,15,16,16a-tetradecahydro-1H-cyclopropa[i]pyrrolo[1,2-e][1,5,8]oxadiazacyclopentadecin-6-yl)carbamate]",1010 to 5000 pM,510 to 1000 pM
"COc1ccc2c(O[C@@H]3C[C@H]4C(=O)N[C@]5(C(=O)NS(=O)(=O)C6(C)CC6)C[C@H]5/C=C\CC[C@@H](C)O[C@@H](C)[C@H](NC(=O)OC(C)(C)C(F)(F)F)C(=O)N4C3)nccc2c1 [Compound 2002, 1,1,1-trifluoro-2-methylpropan-2-yl ((2R,6S,7S,9R,13aS,14aR,16aS,Z)-2-((6-methoxyisoquinolin-1-yl)oxy)-7,9-dimethyl-14a-(((1-methylcyclopropyl)sulfonyl)carbamoyl)-5,16-dioxo-2,3,5,6,7,9,10,11,13a,14,14a,15,16,16a-tetradecahydro-1H-cyclopropa[i]pyrrolo[1,2-e][1,5,8]oxadiazacyclopentadecin-6-yl)carbamate]",510 to 1000 pM,100 to 500 pM
"COc1cnc(O[C@@H]2C[C@H]3C(=O)N[C@]4(C(=O)NS(=O)(=O)C5(C)CC5)C[C@H]4/C=C\CC[C@@H](C)O[C@@H](C)[C@H](NC(=O)OC(C)(C)C(F)(F)F)C(=O)N3C2)c2ccccc12 [Compound 2003, 1,1,1-trifluoro-2-methylpropan-2-yl ((2R,6S,7S,9R,13aS,14aR,16aS,Z)-2-((4-methoxyisoquinolin-1-yl)oxy)-7,9-dimethyl-14a-(((1-methylcyclopropyl)sulfonyl)carbamoyl)-5,16-dioxo-2,3,5,6,7,9,10,11,13a,14,14a,15,16,16a-tetradecahydro-1H-cyclopropa[i]pyrrolo[1,2-e][1,5,8]oxadiazacyclopentadecin-6-yl)carbamate]",510 to 1000 pM,100 to 500 pM
"CCOc1cnc(O[C@@H]2C[C@H]3C(=O)N[C@]4(C(=O)NS(=O)(=O)C5(C)CC5)C[C@H]4/C=C\CC[C@@H](C)O[C@@H](C)[C@H](NC(=O)OC(C)(C)C(F)(F)F)C(=O)N3C2)c2ccccc12 [Compound 2004, 1,1,1-trifluoro-2-methylpropan-2-yl ((2R,6S,7S,9R,13aS,14aR,16aS,Z)-2-((4-ethoxyisoquinolin-1-yl)oxy)-7,9-dimethyl-14a-(((1-methylcyclopropyl)sulfonyl)carbamoyl)-5,16-dioxo-2,3,5,6,7,9,10,11,13a,14,14a,15,16,16a-tetradecahydro-1H-cyclopropa[i]pyrrolo[1,2-e][1,5,8]oxadiazacyclopentadecin-6-yl)carbamate]",510 to 1000 pM,100 to 500 pM
